Values after ≈ are worked out from the molar mass of the structure shown. Where two headings read alike, the source gives them in different places.
Legend:
[1] = tested on: A. baumannii (ATCC17978); assay: 50% growth inhibitory concentration (IC50) determination assay, A. baumannii; type: cell-based; settings: Acinetobacter baumannii, ATCC17978; Iso-Sensitest broth, growth by OD 600 nm over 16 h; <0.098 = detection limit
How it was run: (§1)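 Compounds two-fold diluted from 50 to 0.097 μM (final) in Iso-Sensitest broth, inoculum ~5×10^5 CFU/mL. Incubation at 35±2 °C with OD600 read every 20 min over 16 h to track growth.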

[2] = tested on: S. aureus (ATCC29213); assay: 50% growth inhibitory concentration (IC50) determination assay, S. aureus; type: cell-based; settings: Staphylococcus aureus, ATCC29213; Iso-Sensitest broth, growth by OD 600 nm over 16 h; <0.098 = detection limit
How it was run: as §1

[3] = tested on: K. pneumoniae (ATCC10031); assay: 50% growth inhibitory concentration (IC50) determination assay, K. pneumoniae; type: cell-based; settings: Klebsiella pneumoniae, ATCC10031; Iso-Sensitest broth, growth by OD 600 nm over 16 h; <0.098 = detection limit
How it was run: as §1

[4] = Lyophilisation solubility assay (LYSA); type: physicochemical; settings: aqueous buffer, thermodynamic from solid; 0.05 M phosphate buffer, pH 6.5; <1.0 = detection limit
Experimental: The solubility of compounds of present invention was assessed by LYSA assay. Samples were prepared in duplicate from 10 mM DMSO stock solutions (20 μL) diluted in 30 μL pure DMSO. After evaporation of DMSO with a centrifugal vacuum evaporator, the residue was dissolved in 0.05 M phosphate buffer (150 μL, pH 6.5), which was stirred for one hour and shook for two hours. After one night, the solution was filtered using a microtiter filter plate. Then the filtrate and its 1/10 dilution were analyzed by HPLC-UV. In addition a four-point calibration curve was prepared from the 10 mM stock solutions and used for the solubility determination of the compounds.

[5] = tested on: multiple species and strains; assay: microbe, parasite or virus in culture; set-up: MIC S9 / MIC S7 / MIC S11 / MIC S8 / MIC S10: unit not given beside the values; settings: for MIC S9: E. coli ATCC 35218
How it was run: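 Broth microdilution per CLSI M07-A10 in CAMHB, CAMHB+3% lysed horse blood or HTM. Inoculum was set to OD600 ~0.1, then diluted 1:280 (Gram-positive) or 1:400 (Gram-negative), and plates were incubated 18-24 h at 35±2° C in ambient air. MIC (μg/mL) is the lowest concentration giving no visible growth.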

[6] = Cytotoxicity assay (HepG2, CellTiter-Blue); type: cell-based; settings: human; HepG2 cells, 3 days treatment; >100 = detection limit
Experimental: The cytotoxicity of compounds of present invention was assessed by HepG2 assay. HepG2 cells (ATCC RB-8065™) were seeded into 96-well plates (1.2×10^4 cells per well) and treated with compounds for 3 days, cell viability was measured at day 3 post compound treatment using the CellTiter-Blue® Cell Viability Assay (Promega, Cat. No. G8082). […], of Cell titer blue buffer were added to each well of the cells, which were incubated for 3 hours at 37° C., and the fluorescence value was measured by a plate reader (Molecular Device SpectraMax M2). The CC50 value of each compound is plotted with GraphPad Prism using four parameter logistic equation.

[7] = Acinetobacter baumannii, ATCC19606, read-out: MIC S1, A. baumannii ATCC 19606
[8] = Acinetobacter baumannii, ATCC51432, read-out: MIC S2, A. baumannii ATCC 51432
[9] = Acinetobacter baumannii, ATCCBAA747, read-out: MIC S3, A. baumannii ATCC BAA-747
[10] = Escherichia coli, ATCC25922, read-out: MIC S11, E. coli ATCC 25922
[11] = Escherichia coli, ATCCBAA2340, read-out: MIC S10, E. coli ATCC BAA-2340
[12] = Klebsiella pneumoniae, ATCC10031, read-out: MIC S4, K. pneumoniae ATCC 10031
[13] = Klebsiella pneumoniae, ATCC700603, read-out: MIC S5, K. pneumoniae ATCC 700603
[14] = Klebsiella pneumoniae, ATCCBAA2146, read-out: MIC S6, K. pneumoniae ATCC BAA-2146
[15] = Pseudomonas aeruginosa, ATCC27853, read-out: MIC S7, P. aeruginosa ATCC 27853
[16] = Pseudomonas aeruginosa, ATCCBAA2113, read-out: MIC S8, P. aeruginosa ATCC BAA-2113

Compound	IC50 [1]	IC50 [2]	IC50 [3]	solubility thermodynamic [4]	MIC [5, 7]	MIC [5, 8]	MIC [5, 9]	MIC S9 [5]	MIC [5, 10]	MIC [5, 11]	MIC [5, 12]	MIC [5, 13]	MIC [5, 14]	MIC [5, 15]	MIC [5, 16]	CC50 at 3 days [6]
CNc1cc(Cl)cc2c1[nH]c1ncc(-c3ccc4ccc(C(=O)O)c(=O)n4c3)c(N3CC[C@H]4CN(C)C[C@H]43)c12 (relative stereo) [Example 1.19, 7-[6-chloro-4-(cis-5-methyl-2,3,3a,4,6,6a-hexahydropyrrolo[2,3-c]pyrrol-1-yl)-8-(methylamino)-9H-pyrido[2,3-b]indol-3-yl]-4-oxo-quinolizine-3-carboxylic acid]	< 0.098 µM	0.185 µM	< 0.098 µM	29 µg/mL (≈ 53.4 µM)												
CNc1cc(F)c(F)c2c1[nH]c1ncc(-c3cc(C)c4ccc(C(=O)O)c(=O)n4c3)c(N3CC[C@H]4CN(C)C[C@H]43)c12 (relative stereo) [Example 2.01, 7-(5,6-Difluoro-8-(methylamino)-4-(cis-5-methyl-2,3,3a,4,6,6a-hexahydropyrrolo[2,3-c]pyrrol-1-yl)-9H-pyrido[2,3-b]indol-3-yl)-9-methyl-4-oxo-4H-quinolizine-3-carboxylic acid]	< 0.098 µM	< 0.098 µM	< 0.098 µM	41 µg/mL (≈ 73.4 µM)												
CNc1cc(F)c(F)c2c1[nH]c1ncc(-c3cc(F)c4ccc(C(=O)O)c(=O)n4c3)c(N3CC[C@H]4CN(C)C[C@H]43)c12 (relative stereo) [Example 2.02, 7-[4-[cis-5-methyl-2,3,3a,4,6,6a-hexahydropyrrolo[2,3-c]pyrrol-1-yl]-5,6-difluoro-8-(methylamino)-9H-pyrido[2,3-b]indol-3-yl]-9-fluoro-4-oxo-quinolizine-3-carboxylic acid]	< 0.098 µM	0.108 µM	< 0.098 µM	58 µg/mL (≈ 103 µM)												
CNc1cc(F)c(F)c2c1[nH]c1ncc(-c3ccc4c(C(F)(F)F)cc(C(=O)O)c(=O)n4c3)c(N3CC[C@H]4CN(C)C[C@H]43)c12 (relative stereo) [Example 2.06, 7-[4-[cis-5-methyl-2,3,3a,4,6,6a-hexahydropyrrolo[2,3-c]pyrrol-1-yl]-5,6-difluoro-8-(methylamino)-9H-pyrido[2,3-b]indol-3-yl]-4-oxo-1-(trifluoromethyl)quinolizine-3-carboxylic acid]				7 µg/mL (≈ 11.4 µM)												
CNc1cc(F)cc2c1[nH]c1ncc(-c3ccc4ccc(C(=O)O)c(=O)n4c3)c(N3C[C@H]4CCN(C)[C@H]4C3)c12 (single isomer, unassigned) [Example 3.01A]	< 0.098 µM	< 0.098 µM	< 0.098 µM	9 µg/mL (≈ 17.1 µM)												
CNc1cc(F)cc2c1[nH]c1ncc(-c3ccc4ccc(C(=O)O)c(=O)n4c3)c(N3C[C@@H]4CCN(C)[C@@H]4C3)c12 (single isomer, unassigned) [Example 3.01B]	< 0.098 µM	< 0.098 µM	< 0.098 µM	16 µg/mL (≈ 30.4 µM)												
CNc1cc(F)c(F)c2c1[nH]c1ncc(-c3ccc4ccc(C(=O)O)c(=O)n4c3)c(N3CC[C@@H]4CCN(C)[C@@H]4C3)c12 [Example 3.04B, 7-[4-[(3aS,7aS)-1-methyl-3,3a,4,5,7,7a-hexahydro-2H-pyrrolo[2,3-c]pyridin-6-yl]-5,6-difluoro-8-(methylamino)-9H-pyrido[2,3-b]indol-3-yl]-4-oxo-quinolizine-3-carboxylic acid]	< 0.098 µM	< 0.098 µM	< 0.098 µM		0.436 µg/mL (≈ 0.781 µM)	0.436 µg/mL (≈ 0.781 µM)	0.436 µg/mL (≈ 0.781 µM)	0.436	0.164 µg/mL (≈ 0.294 µM)	1.75 µg/mL (≈ 3.13 µM)	0.027 µg/mL (≈ 0.0483 µM)	1.75 µg/mL (≈ 3.13 µM)	1.75 µg/mL (≈ 3.13 µM)	0.873 µg/mL (≈ 1.56 µM)	1.75 µg/mL (≈ 3.13 µM)	10.8 µM
CNc1cc(F)c(F)c2c1[nH]c1ncc(-c3ccc4ccc(C(=O)O)c(=O)n4c3)c(N3CC[C@@]4(C[C@H]4N)C3)c12 [Example 4.01B, 7-(4-((1R,3R)-1-amino-5-azaspiro[2.4]heptan-5-yl)-5,6-difluoro-8-(methylamino)-9H-pyrido[2,3-b]indol-3-yl)-4-oxo-4H-quinolizine-3-carboxylic acid]	< 0.098 µM	< 0.098 µM	< 0.098 µM													> 100 µM
CNc1cc(F)c(F)c2c1[nH]c1ncc(-c3ccc4ccc(C(=O)O)c(=O)n4c3)c(N3CC[C@]4(C[C@H]4N)C3)c12 [Example 4.01C, 7-(4-((1R,3S)-1-amino-5-azaspiro[2.4]heptan-5-yl)-5,6-difluoro-8-(methylamino)-9H-pyrido[2,3-b]indol-3-yl)-4-oxo-4H-quinolizine-3-carboxylic acid]	< 0.098 µM	< 0.098 µM	< 0.098 µM		0.592 µg/mL (≈ 1.12 µM)	0.592 µg/mL (≈ 1.12 µM)	1.19 µg/mL (≈ 2.24 µM)	0.592	0.222 µg/mL (≈ 0.418 µM)	1.19 µg/mL (≈ 2.24 µM)	0.074 µg/mL (≈ 0.139 µM)	2.37 µg/mL (≈ 4.47 µM)	2.37 µg/mL (≈ 4.47 µM)	1.19 µg/mL (≈ 2.24 µM)	2.37 µg/mL (≈ 4.47 µM)	> 100 µM
CNc1cc(F)c(F)c2c1[nH]c1ncc(-c3ccc4ccc(C(=O)O)c(=O)n4c3)c(N3CC[C@]4(C[C@@H]4N)C3)c12 [Example 4.01D, 7-(4-((1S,3S)-1-amino-5-azaspiro[2.4]heptan-5-yl)-5,6-difluoro-8-(methylamino)-9H-pyrido[2,3-b]indol-3-yl)-4-oxo-4H-quinolizine-3-carboxylic acid]	< 0.098 µM	< 0.098 µM	< 0.098 µM		0.592 µg/mL (≈ 1.12 µM)	1.19 µg/mL (≈ 2.24 µM)	1.19 µg/mL (≈ 2.24 µM)	1.186	0.111 µg/mL (≈ 0.209 µM)	0.592 µg/mL (≈ 1.12 µM)	0.037 µg/mL (≈ 0.0697 µM)	4.74 µg/mL (≈ 8.94 µM)	4.74 µg/mL (≈ 8.94 µM)	1.19 µg/mL (≈ 2.24 µM)	2.37 µg/mL (≈ 4.47 µM)	> 100 µM
CNc1cc(F)c(Cl)c2c1[nH]c1ncc(-c3ccc4ccc(C(=O)O)c(=O)n4c3)c(N3CC[C@@]4(C[C@H]4N)C3)c12 [Example 5.01C, 7-(4-((1R,3R)-1-amino-5-azaspiro[2.4]heptan-5-yl)-5-chloro-6-fluoro-8-(methylamino)-9H-pyrido[2,3-b]indol-3-yl)-4-oxo-4H-quinolizine-3-carboxylic acid]	< 0.098 µM	< 0.098 µM	< 0.098 µM		0.516 µg/mL (≈ 0.943 µM)	0.258 µg/mL (≈ 0.472 µM)	0.516 µg/mL (≈ 0.943 µM)	0.258	0.194 µg/mL (≈ 0.355 µM)	0.258 µg/mL (≈ 0.472 µM)	0.032 µg/mL (≈ 0.0585 µM)	2.07 µg/mL (≈ 3.78 µM)	2.07 µg/mL (≈ 3.78 µM)	1.03 µg/mL (≈ 1.88 µM)	2.07 µg/mL (≈ 3.78 µM)	> 100 µM

Source: patent US20210238197A1, “NOVEL OXOQUINOLIZINE COMPOUNDS FOR THE TREATMENT AND PROPHYLAXIS OF BACTERIAL INFECTION” (Hoffmann-La Roche Inc., priority 2018, published 2021)
